Data: ChEMBL document CHEMBL5465560, “Selectivity Literature for EUbOPEN Chemogenomic Library” (2024)

Legend:
[1] = biological target: T1, Histone-lysine N-methyltransferase EHMT1 (Homo sapiens) (UniProt Q9H9B1); test: Selectivity interaction (Methyltransferase screen (Scintillation proximity assays)) EUB0000255b EHMT1
T1 sequence (whole entry): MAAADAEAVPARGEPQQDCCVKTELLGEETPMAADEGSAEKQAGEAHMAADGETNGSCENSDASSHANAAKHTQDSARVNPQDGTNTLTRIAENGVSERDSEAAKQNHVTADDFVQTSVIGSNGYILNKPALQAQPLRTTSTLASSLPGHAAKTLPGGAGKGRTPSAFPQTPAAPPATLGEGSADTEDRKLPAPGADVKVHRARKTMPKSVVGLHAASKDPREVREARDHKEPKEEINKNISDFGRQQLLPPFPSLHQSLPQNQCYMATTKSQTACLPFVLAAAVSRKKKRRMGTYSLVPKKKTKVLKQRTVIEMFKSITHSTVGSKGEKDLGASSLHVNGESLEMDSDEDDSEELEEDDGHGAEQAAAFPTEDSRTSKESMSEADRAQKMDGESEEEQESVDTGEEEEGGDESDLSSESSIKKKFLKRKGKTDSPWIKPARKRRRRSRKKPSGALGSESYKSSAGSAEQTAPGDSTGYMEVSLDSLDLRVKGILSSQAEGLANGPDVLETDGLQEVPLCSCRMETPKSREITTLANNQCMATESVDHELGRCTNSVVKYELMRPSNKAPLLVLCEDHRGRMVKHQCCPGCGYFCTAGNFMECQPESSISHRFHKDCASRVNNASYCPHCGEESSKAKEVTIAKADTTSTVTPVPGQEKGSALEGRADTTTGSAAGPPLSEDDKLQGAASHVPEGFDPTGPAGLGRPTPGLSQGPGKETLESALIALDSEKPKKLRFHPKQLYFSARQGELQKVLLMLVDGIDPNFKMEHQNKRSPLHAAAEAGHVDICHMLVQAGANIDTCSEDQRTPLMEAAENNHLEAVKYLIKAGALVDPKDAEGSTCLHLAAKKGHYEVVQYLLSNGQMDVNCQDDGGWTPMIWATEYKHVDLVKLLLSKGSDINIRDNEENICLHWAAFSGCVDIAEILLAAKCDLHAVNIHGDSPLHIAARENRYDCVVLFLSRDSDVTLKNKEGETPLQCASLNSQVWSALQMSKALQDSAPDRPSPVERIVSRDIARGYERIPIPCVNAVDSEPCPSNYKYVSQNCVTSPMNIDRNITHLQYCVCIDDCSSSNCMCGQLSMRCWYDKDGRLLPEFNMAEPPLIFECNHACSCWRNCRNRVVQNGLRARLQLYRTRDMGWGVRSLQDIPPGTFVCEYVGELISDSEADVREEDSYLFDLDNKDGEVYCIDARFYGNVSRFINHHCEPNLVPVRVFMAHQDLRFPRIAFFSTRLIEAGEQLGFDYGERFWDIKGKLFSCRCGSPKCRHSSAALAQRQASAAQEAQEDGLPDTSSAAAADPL

[2] = biological target: T2, Mitogen-activated protein kinase kinase kinase 13 (Homo sapiens) (UniProt O43283); test: Selectivity interaction (KinomeScan (DiscoverX)) EUB0000229b MAP3K13; settings: at 10 µM
T2 sequence (whole entry): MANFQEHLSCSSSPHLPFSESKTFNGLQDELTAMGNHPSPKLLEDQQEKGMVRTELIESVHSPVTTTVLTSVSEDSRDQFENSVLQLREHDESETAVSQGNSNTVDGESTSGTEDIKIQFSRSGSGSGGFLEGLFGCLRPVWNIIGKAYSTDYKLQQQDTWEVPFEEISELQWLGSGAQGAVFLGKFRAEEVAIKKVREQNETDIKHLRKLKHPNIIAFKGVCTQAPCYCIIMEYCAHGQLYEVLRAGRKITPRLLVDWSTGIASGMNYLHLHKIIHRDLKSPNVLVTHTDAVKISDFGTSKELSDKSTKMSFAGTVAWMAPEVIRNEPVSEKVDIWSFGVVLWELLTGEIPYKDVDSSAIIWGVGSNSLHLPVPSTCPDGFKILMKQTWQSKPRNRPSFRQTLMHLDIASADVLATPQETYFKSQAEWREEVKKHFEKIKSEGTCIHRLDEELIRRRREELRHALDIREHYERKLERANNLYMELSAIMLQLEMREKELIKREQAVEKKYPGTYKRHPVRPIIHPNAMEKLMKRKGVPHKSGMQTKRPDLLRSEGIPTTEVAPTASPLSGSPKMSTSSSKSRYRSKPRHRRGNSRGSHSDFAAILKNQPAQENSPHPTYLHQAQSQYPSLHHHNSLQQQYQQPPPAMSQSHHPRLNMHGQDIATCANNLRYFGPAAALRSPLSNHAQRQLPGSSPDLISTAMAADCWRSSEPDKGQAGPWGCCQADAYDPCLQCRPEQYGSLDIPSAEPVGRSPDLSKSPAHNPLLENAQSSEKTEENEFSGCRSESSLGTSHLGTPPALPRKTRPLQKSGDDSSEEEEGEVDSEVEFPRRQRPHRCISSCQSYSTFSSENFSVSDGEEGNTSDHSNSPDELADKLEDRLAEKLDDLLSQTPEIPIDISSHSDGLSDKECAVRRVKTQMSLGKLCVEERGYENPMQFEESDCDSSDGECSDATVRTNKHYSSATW

Insulin receptor = Insulin receptor (Homo sapiens, UniProt P06213); test: Selectivity interaction (ProQinase) EUB0000171b INSR
Sequence of Insulin receptor (P06213 28-758 limits assumed): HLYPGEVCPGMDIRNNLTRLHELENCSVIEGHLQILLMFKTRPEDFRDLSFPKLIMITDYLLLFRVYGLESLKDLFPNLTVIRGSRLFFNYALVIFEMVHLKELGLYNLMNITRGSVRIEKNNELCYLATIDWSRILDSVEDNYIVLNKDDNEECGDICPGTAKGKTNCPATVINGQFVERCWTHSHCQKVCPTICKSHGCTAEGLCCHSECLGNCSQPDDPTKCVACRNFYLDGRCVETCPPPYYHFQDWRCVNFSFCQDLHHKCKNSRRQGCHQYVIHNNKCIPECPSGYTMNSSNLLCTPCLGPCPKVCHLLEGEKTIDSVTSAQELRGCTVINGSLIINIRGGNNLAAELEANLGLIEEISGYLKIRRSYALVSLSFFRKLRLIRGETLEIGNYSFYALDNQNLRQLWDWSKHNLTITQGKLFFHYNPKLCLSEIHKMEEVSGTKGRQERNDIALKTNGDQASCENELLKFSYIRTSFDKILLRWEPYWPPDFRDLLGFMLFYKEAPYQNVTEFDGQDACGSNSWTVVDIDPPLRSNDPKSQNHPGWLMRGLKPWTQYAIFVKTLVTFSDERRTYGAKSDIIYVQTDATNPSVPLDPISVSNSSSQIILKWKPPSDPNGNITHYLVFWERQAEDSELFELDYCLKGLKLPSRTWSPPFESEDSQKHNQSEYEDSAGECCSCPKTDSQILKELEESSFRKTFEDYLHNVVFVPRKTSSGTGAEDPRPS
Sequence of Insulin receptor (P06213 763-1382 limits assumed): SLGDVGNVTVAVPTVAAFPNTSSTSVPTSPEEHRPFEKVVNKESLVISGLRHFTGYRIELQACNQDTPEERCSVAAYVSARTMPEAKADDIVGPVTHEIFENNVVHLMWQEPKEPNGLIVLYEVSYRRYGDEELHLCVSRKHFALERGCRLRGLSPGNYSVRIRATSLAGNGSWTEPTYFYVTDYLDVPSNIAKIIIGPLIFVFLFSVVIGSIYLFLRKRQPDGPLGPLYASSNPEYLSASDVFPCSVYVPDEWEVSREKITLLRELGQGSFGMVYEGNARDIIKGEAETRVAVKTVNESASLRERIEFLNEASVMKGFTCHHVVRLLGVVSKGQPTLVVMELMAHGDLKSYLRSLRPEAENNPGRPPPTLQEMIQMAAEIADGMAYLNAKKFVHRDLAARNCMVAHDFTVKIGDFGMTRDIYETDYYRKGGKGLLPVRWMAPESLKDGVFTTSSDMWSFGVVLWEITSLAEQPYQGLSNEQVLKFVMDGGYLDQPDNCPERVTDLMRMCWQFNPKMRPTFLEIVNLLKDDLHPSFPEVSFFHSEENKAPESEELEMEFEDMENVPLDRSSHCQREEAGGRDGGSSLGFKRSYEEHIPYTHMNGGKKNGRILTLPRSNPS

SRSF protein kinase 1 = SRSF protein kinase 1 (Homo sapiens, UniProt Q96SB4); test: Selectivity interaction (Kinase panel (KiNativ target engagement assay in Jurkat cells)) EUB0001635a SRPK1; type: cell-based; settings: Selectivity number of off-targets 0.0, Selectivity number of targets 233.0, Source Knowledge https://www.sciencedirect.com/science/article/pii/S2451945619300674?via%3Dihub, at 1 µM
Sequence of SRSF protein kinase 1 (Q96SB4 whole entry): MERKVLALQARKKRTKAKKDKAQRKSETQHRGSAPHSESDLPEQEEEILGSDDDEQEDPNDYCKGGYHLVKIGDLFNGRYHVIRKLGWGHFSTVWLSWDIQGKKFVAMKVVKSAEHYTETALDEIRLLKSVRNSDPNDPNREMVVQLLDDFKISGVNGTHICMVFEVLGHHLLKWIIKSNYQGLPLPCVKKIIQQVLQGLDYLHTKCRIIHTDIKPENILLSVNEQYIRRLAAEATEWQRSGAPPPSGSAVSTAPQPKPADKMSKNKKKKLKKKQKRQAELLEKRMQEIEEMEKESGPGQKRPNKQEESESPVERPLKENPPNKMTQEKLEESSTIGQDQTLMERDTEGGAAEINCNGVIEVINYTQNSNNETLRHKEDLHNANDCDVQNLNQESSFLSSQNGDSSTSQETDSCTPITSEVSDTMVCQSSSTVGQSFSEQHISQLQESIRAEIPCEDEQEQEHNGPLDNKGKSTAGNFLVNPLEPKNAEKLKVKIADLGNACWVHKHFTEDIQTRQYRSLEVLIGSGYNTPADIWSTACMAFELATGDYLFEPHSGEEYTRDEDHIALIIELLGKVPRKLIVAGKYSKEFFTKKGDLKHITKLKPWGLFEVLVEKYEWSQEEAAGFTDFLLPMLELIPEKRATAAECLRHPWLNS

[3] = system: RAF proto-oncogene serine/threonine-protein kinase (Homo sapiens), P04049 [Y340D,Y341D]; test: Selectivity interaction (Kinase panel (Z-LYTE Assay)) EUB0001632a RAF1; settings: at 10 µM
Sequence of RAF proto-oncogene serine/threonine-protein kinase (Homo sapiens), P04049 [Y340D,Y341D] (P04049 whole entry Y340D/Y341D): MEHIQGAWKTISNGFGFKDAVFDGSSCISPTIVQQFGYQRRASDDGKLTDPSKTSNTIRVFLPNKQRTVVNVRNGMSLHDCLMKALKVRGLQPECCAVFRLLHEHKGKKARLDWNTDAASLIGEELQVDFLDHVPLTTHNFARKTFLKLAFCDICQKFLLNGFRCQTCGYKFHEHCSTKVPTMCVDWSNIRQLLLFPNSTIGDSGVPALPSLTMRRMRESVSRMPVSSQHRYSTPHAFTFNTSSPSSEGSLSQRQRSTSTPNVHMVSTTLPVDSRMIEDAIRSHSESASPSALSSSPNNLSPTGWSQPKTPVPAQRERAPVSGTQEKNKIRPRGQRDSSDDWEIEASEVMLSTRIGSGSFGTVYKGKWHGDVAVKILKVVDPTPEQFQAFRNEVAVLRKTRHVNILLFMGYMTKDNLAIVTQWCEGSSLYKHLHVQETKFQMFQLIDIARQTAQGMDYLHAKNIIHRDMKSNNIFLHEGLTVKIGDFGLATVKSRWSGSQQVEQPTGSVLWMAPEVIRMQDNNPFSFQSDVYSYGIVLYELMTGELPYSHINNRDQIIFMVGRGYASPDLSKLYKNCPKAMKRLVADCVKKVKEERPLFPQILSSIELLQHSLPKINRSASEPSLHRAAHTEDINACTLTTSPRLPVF

[4] = biological target: Ribosomal protein S6 kinase alpha-2 (Homo sapiens) (UniProt Q15349); test: Selectivity interaction (KinomeScan (DiscoverX)) EUB0001619a RPS6KA2; settings: at 1 µM
Sequence of Ribosomal protein S6 kinase alpha-2 (Homo sapiens) (Q15349 whole entry): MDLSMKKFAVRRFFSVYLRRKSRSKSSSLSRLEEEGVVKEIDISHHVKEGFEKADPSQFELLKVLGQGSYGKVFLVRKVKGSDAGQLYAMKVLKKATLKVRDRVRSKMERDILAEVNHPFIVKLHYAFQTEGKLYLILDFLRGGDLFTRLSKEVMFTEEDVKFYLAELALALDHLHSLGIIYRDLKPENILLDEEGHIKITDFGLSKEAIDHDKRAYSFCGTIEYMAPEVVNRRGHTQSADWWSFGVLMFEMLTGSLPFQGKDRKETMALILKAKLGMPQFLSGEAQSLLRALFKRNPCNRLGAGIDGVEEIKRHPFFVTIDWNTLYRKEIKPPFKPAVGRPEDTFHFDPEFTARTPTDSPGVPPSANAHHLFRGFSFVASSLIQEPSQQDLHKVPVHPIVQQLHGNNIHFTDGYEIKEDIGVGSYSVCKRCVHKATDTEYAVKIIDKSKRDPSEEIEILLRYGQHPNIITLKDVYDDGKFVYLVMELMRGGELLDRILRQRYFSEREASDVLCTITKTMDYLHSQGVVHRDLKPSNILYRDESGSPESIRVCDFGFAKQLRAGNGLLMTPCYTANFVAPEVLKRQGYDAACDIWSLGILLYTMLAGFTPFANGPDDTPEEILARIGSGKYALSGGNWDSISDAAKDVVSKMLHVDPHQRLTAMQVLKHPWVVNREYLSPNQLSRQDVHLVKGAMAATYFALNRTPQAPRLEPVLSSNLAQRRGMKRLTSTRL

## COCCN1CCC(c2cc(CN(C)C(=O)c3cccc(Oc4ccccc4)c3)ccn2)CC1
[1]; at 1 µM
  % activity: > 95%
[1]; at 10 µM
  % activity: > 90%

## COc1cc(N(C)c2ccnc3ccc(C(F)(F)F)cc23)cc(OC)c1OC
[2]
  % binding: 100%

## C=CC(=O)Nc1cccc(C(=O)Nc2ccc(Nc3cc(-c4[nH]c(SC)nc4C)ccn3)cc2)c1
Insulin receptor; at 1 µM
  % of control: 91%
Insulin receptor; at 5 µM
  % of control: 83%

## C=CC(=O)Nc1ccc(C(=O)Nc2[nH]nc3c2CN(C(=O)N[C@H](CN(C)C)c2ccccc2)C3(C)C)cc1
SRSF protein kinase 1
  % of engagement: 6%

## Cn1cc(-n2cnc3c(NCc4nc5cc(Cl)c(Cl)cc5[nH]4)nc(N4CCOCC4)nc32)cn1
[3]
  % of control: -1.53%

## N#Cc1cccc(-c2c[nH]c3ncnc(N4CCOCC4)c23)c1
[4]
  % of control: 100%
